Measurements reported in US20250099409A1, “TOPICAL THERAPEUTIC” (Beta Biofuel Solutions, LLC, priority 2022, published 2025).

How the values were obtained:
[1] = test system: severe mouth sores, pain, and skin eruptions; test: Example 7: Patient G, oral spray in cancer patient on Taxotere and Carboplatin chemotherapy; format: in vivo, human
Method: Set up: The trial consisted of administering a topical therapeutic spray to a cancer patient receiving Taxotere and Carboplatin chemotherapy. The side effects of cancer treatment presented the patient with severe mouth sores, pain, and skin eruptions which prevented regular mastication and intake of food and some beverages. Patient G's tastebuds were also severely affected, and the taste was unreliable. […] About 250 mg/L concentration of sodium pyruvate oral spray was administered inside the mouth and throat at 1 ml per spray, two to three sprays per administration. […] The product was used ad hoc to provide continuous comfort as saliva reintroduced the chemicals causing discomfort. […] However, issues with taste were not improved with the topical therapeutic spray.

[2] = test system: rhinitis, and burning in the nose and throat resulting from secondhand cigarette smoke; test: Example 1: Patient A, topical therapeutic spray to nasal cavities and throat; format: in vivo, human
Method: Set up: The trial consisted of administering a topical therapeutic spray to a patient suffering from rhinitis, and burning in the nose and throat resulting from persistent and long-term exposure to secondhand cigarette smoke. About 250 mg/L concentration of sodium pyruvate incorporated spray was administered to the nasal cavities and throat at about 1 ml per spray, administered two to three sprays per administration.
The spray treatment was re-applied a couple of hours later. […] The spray was applied prophylactically before bed.

[3] = test system: epidermal disturbances from psoriatic plaques; test: Example 2: Patient B, topical therapeutic wipe on psoriatic plaques on the back; format: in vivo, human
Method: (§1) Set up: The trial consisted of administering a topical therapeutic wipe to patients suffering from epidermal disturbances from psoriatic plaques. […] About 250 mg/L concentration of sodium pyruvate formulated with glycerin emollient imbued was administered to the affected area via an imbued wipe. The treatment was applied twice a day, once in the morning and once in the evening.

[4] = test system: epidermal disturbances from psoriatic plaques; test: Example 3: Patient C, roll-on on psoriatic plaques behind ears and scalp; format: in vivo, human
Method: as §1, with “spray” for “wipe”, “a patient” for “patients”, “emollient” for “emollient imbued”, “roll-on.” for “wipe.”

[5] = test system: redness and burning on the general epidermis and deep muscle pain post-radiation therapy; test: Example 4: Patient D, spray and wipe in breast cancer patient post-radiation therapy; format: in vivo, human
Text: Set up: The trial consisted of administering a topical therapeutic spray and wipe to a breast cancer patient suffering from redness and burning on the general epidermis and deep muscle pain post-radiation therapy treatment. The patient received 30 daily radiation treatments in just over a month. […] The topical therapeutic spray was used afterwards ad hoc.

[6] = test system: severe burning, itching, and peeling in the urethral, vaginal, and anal areas; test: Example 5: Patient E, imbued wipe in patient on Taxotere and Carboplatin chemotherapy with monoclonal antibody infusion; format: in vivo, human; conditions: continued administration of wipe
Method: Set up: The trial consisted of administering a topical therapeutic imbued wipe to a patient receiving a concurrent Taxotere and Carboplatin chemotherapy, with monoclonal antibody infusion treatments. The side effects of cancer treatment presented the patient with severe burning, itching, and peeling in the urethral, vaginal, and anal areas due to the elimination of the chemicals via urine and stools. About 250 mg/L concentration of sodium pyruvate formulated with glycerin emollient wipe was used to clean the affected areas after elimination, in addition to when the discomforts were present.
Patient E continued using the topical treatment concurrently with cancer therapy, and for about a month after.

[7] = test system: redness, itchy splotches on the underside of the body, and fur-less areas around the ears due to ragweed pollen sensitivity; test: Example 6: Patient F, spray on dog with ragweed pollen sensitivity; format: in vivo, Jack Russel Terrier
Method: Set up: The trial consisted of administering a topical therapeutic spray to a 5-year-old Jack Russel Terrier suffering from redness, itchy splotches on the underside of the body, and fur-less areas around the ears due to ragweed pollen sensitivity. […] After cleaning with water and drying the affected areas, about 250 mg/L concentration of sodium pyruvate spray formulated with glycerin was applied to the undercarriage and ears.
Summary: After the first administration, the redness subsided, and the dog relaxed within 15 minutes. The treatment was administered after each time the dog went outside and continued throughout the ragweed pollen season.

[8] = test system: moderate sunburn on the face, shoulders, and arms; test: Example 8: Patient H, spray on moderate sunburn; format: in vivo, human
Method: Set up: The trial consisted of administering a topical therapeutic spray to a patient with moderate sunburn on the face, shoulders, and arms early in the summer season while working on a field project. The patient had used sunscreen, but due to the prolonged exposure, the effects of the sunburn were present. The face was particularly red as it was directly exposed to ultraviolet (UV) radiation and not covered by clothing. About 250 mg/L concentration of sodium pyruvate formulated with glycerin emollient spray was applied to the affected areas.
The spray was applied for another day until the redness subsided.

[9] = test system: redness, burning, and skin inflammation after exposure to irritating vegetation, e.g., poison ivy; test: Example 9: Patient I, spray after exposure to irritating vegetation; format: in vivo, human; conditions: about 250 mg/L with glycerin emollient spray, after the first administration
Method: The affected area was cleaned with cold water without soap to remove the oils and waxes transferred from the plant. About 250 mg/L concentration of sodium pyruvate formulated with glycerin emollient spray was applied to the affected areas of the general epidermis.
The topical therapeutic spray was readministered ad hoc depending on the severity of the exposure.

[10] = test system: burning throat due to atmospheric dryness, allergic reaction, or disease state reaction; test: Example 10: Patient J, oral spray for burning throat; format: in vivo, human; conditions: about 250 mg/L oral spray, 1 ml per spray, two to three sprays, after the first administration
Method: Set up: The trial consisted of administering a topical therapeutic spray to a patient suffering from a burning throat due to atmospheric dryness, allergic reaction, or disease state reaction. About 250 mg/L concentration of sodium pyruvate oral spray was administered inside the mouth and throat at 1 ml per spray, two to three sprays per administration.
The product was used ad hoc to provide continuous comfort.

SMILES: O=C([O-])O.[Na+] [baking soda]
- alleviation of mouth sores, pain and skin eruptions ([1]; applied to the affected areas as recommended, before the topical therapeutic): did little to alleviate the problem

SMILES: CC(=O)C(=O)[O-].[Na+] [sodium pyruvate, 2-oxopropanoic acid sodium salt]
- effect of the second treatment on burning ([2]; about 250 mg/L spray re-applied a couple of hours later): complete alleviation of the burning to both the nose and throat
- time to reduced burning or itching in the affected nasal and throat areas ([2]; about 250 mg/L spray, about 1 ml per spray, two to three sprays, after the first administration): ≤ 15 min
- recurrence of pain and burning ([2]; spray also applied prophylactically before bed): never returned
- outcome with continuous administration ([3]; about 250 mg/L with glycerin emollient, imbued wipe, twice a day): itching and burning did not return, and the skin surface returned to normal form
- time to reduced burning or itching ([3]; about 250 mg/L with glycerin emollient, imbued wipe, twice a day, after administration): ≤ 15 min
- outcome when treatment was interrupted ([3]; treatment interrupted): the plaques returned along with itching and burning
- outcome with continuous administration ([4]; about 250 mg/L with glycerin emollient, imbued roll-on, twice a day): itching and burning did not return and the skin surface returned to normal form
- time to reduced burning and itching ([4]; about 250 mg/L with glycerin emollient, imbued roll-on, twice a day, after administration): ≤ 15 min
- outcome when administration was interrupted ([4]; administration interrupted): the plaques returned along with itching and burning
- time to reduction in burning ([5]; about 250 mg/L with glycerin emollient, after the first administration via an imbued cloth wipe): ≤ 30 min
- blistering to the skin ([5]; about 250 mg/L with glycerin emollient, imbued cloth wipe): without any blistering to the skin
- browning of the affected area (remark of radiation oncologist at follow-up visits) ([5]; wipe, then spray ad hoc): dissipated more rapidly than usual
- sloughing of damaged skin [6]: ceased within a few days of continued administration
- time until the redness subsided and the dog relaxed ([7]; about 250 mg/L spray with glycerin on undercarriage and ears, after the first administration): ≤ 15 min
- outcome when administration was interrupted ([7]; during the pollen season, administration interrupted): the itching, redness, and scratching returned
- time to almost complete relief of pain and burn ([1]; about 250 mg/L oral spray, 1 ml per spray, two to three sprays, after the first administration): ≤ 30 min
- consumption of food and drinks ([1]; oral spray used ad hoc): able to regularly consume food and drinks without discomfort
- issues with taste ([1]; oral spray used ad hoc): not improved
- sores, pain and discomfort with use of the spray ([1]; oral spray used ad hoc): the sores resolved, and the pain and discomfort were managed
- time to reduced burning ([8]; about 250 mg/L with glycerin emollient spray, after the first administration): ≤ 15 min
- blistering and peeling of the skin due to sunburn ([8]; spray applied for another day until the redness subsided): aided in the prevention of blistering and peeling
- time to reduced burning and itching [9]: ≤ 15 min
- time to reduced burning, itching, and general discomfort [10]: ≤ 15 min
